From paper PMC10831071, “Reaction hijacking inhibition of Plasmodium falciparum asparagine tRNA synthetase” (Nature Communications, 2024)
Several values for one entry are separate records, joined by “and”; a condition that tells them apart may be missing. Identical values can stand only once.

How the values were obtained:
[1] = Metabolic stability in human liver microsomes; format: in vitro ADME; conditions: n = 2
Method: A solution of the test compounds in phosphate buffer solution (1 µM) was incubated in pooled human and mouse liver microsomes (0.5 mg/ml) for 0, 5, 20, 30, 45 and 60 min at 37 °C in the presence and absence of an NADPH regeneration system (NRS). The tests were carried out by TCGLS, Kolkata, India. The reaction was terminated with the addition of ice-cold acetonitrile, containing a […] standard, at designated time points. The sample was centrifuged (3300 × g) for 20 min at 20 °C and the supernatant was diluted by half in water and then analyzed by LC-MS/MS. The % parent compound remaining, half-life (T1/2) and clearance (CLint,app) were calculated using standard methodology. The experiment was carried out in duplicate. Verapamil, diltiazem, phenacetin and imipramine were used as reference standards.

[2] = system: control YFP line (TetR/DOZI module); test: OSM-S-106 susceptibility assay, control YFP line; format: cell-based, Plasmodium falciparum; conditions: YFP-aptamer control line
Method: Synchronous ring-stage PfAsnRS, PfAlaRS, PfGlyRS, PfNT4, PfGDH3, and PfCA cKD parasites, as well as a control line expressing a fluorescent protein under the control of the TetR/DOZI module, were maintained in 0.5 µM aTc to achieve wild-type protein levels, and 0.001 or 0.0015 µM aTc for knockdown of PfAsnRS, PfAlaRS and PfGlyRS, and no aTc for knockdown of PfNT4, PfGDH3 and PfCA. DMSO- and dihydroartemisinin-treatment (0.5 µM) served as reference controls.

HsAsnRS = biological target: T1, HsAsnRS (Homo sapiens, UniProt O43776); test: ATP consumption assay (Kinase-Glo), HsAsnRS; format: biochemical; conditions: for ATP consumption: HsAsnRS, normalised to 1 (Fig 3C)
T1 construct: HsAsnRS (residues M1–P548) and CDHsAsnRS (residues A98–P548); His6 (N, cleaved yes); made in house; host or cells: E. coli BL21 (DE3), pET11a
T1 sequence (O43776 1-548): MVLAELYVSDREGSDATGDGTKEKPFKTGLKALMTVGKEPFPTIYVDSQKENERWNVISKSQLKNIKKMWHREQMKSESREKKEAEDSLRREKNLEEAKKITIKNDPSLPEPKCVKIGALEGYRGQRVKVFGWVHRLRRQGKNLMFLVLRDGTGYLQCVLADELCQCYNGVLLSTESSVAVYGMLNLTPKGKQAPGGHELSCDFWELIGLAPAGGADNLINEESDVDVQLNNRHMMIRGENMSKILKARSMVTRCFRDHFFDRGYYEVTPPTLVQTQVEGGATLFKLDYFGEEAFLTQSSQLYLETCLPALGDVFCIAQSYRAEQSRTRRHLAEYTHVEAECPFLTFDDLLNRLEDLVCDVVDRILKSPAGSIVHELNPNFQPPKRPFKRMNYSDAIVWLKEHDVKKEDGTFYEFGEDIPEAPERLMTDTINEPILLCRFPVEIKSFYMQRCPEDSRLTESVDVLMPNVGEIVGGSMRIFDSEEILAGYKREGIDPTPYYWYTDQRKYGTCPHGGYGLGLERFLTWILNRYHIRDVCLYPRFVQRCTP

## Nc1ncnc2cc(-c3cccc(S(N)(=O)=O)c3)sc12 [OSM-S-106]
[1]
  Degradation half-life: 395/619
[2]; 3.125 nM OSM-S-106, 500 nM aTc
  Growth: 98.4708 and 116.919 and 104.321
[2]; 3.125 nM OSM-S-106, no aTc
  Growth: 98.4734 and 92.161 and 100.93
[2]; 6.25 nM OSM-S-106, 500 nM aTc
  Growth: 96.7408 and 93.8415 and 101.366
[2]; 6.25 nM OSM-S-106, no aTc
  Growth: 92.1288 and 90.7869 and 100.211
[2]; 12.5 nM OSM-S-106, 500 nM aTc
  Growth: 103.105 and 71.6867 and 103.065
[2]; 12.5 nM OSM-S-106, no aTc
  Growth: 102.145 and 82.3472 and 97.2955
[2]; 25 nM OSM-S-106, 500 nM aTc
  Growth: 96.4937 and 50.4813 and 93.5
[2]; 25 nM OSM-S-106, no aTc
  Growth: 103.53 and 55.9318 and 95.9432
HsAsnRS; 0.1 μM OSM-S-106
  ATP consumption: 0.9809 and 0.9695 and 0.9878
HsAsnRS; 0.2 μM HsAsnRS, E. coli tRNA present, 37 °C, 1 h (Fig. 3C, D)
  IC50: > 100 µM
HsAsnRS; 1 μM OSM-S-106
  ATP consumption: 0.993 and 0.9826 and 1
HsAsnRS; 3 μM OSM-S-106
  ATP consumption: 0.9931 and 0.9791 and 0.9532
HsAsnRS; 10 μM OSM-S-106
  ATP consumption: 0.9721 and 1 and 0.9745
HsAsnRS; 30 μM OSM-S-106
  ATP consumption: 0.9297 and 0.9566 and 0.9615
HsAsnRS; 100 μM OSM-S-106
  ATP consumption: 0.955 and 0.928 and 0.9784
HsAsnRS; 200 μM OSM-S-106
  ATP consumption: 0.929 and 0.9898
